This passage reports IC50 results from ChEMBL document CHEMBL1157294, “Rautandiols A and B, pterocarpans and cytotoxic constituents from Neorautanenia mitis” (J Nat Prod, 2006).

SMILES strings stand for the structures. Values after ≈ are worked out from the molar mass of the structure shown.

The subject of one assay is A549. The assay can be described thus: Cytotoxicity against human A549 cells after 3 days by SRB assay. It counts as functional, cell-based. The settings on record: A549, 72 h.
A further assay deals with MCF7. In words: Cytotoxicity against human MCF7 cells after 3 days by SRB assay. It counts as functional, cell-based. The settings on record: MCF7, 72 h. On the technique in general: The SRB assay estimates cell density from bound dye.

Broadly, the IC50 is the concentration that inhibits the measured activity by half. Higher therefore signals a need for much substance.

With `CC1(C)Oc2cc3c(cc2CC1O)[C@@H]1Oc2cc(O)ccc2[C@@H]1CO3` (some centres undefined) [RAUTANDIOL A], the IC50 in the assay with A549 and in the assay with MCF7 was over 5 µg/mL in each case.
For `c1cc2cc3c(cc2o1)OC[C@H]1c2cc4c(cc2O[C@@H]31)OCO4` [NEODULIN], the concentration for half-maximal inhibition (IC50) in the assay with A549 and in the assay with MCF7 was over 5 µg/mL in each case.
As for `C=C(C)[C@H]1Cc2c(ccc3c(=O)c4c(oc23)COc2cc(OC)c(OC)cc2-4)O1` [DEHYDROROTENONE], the IC50 in the assay on A549 and with MCF7 was over 5 µg/mL each time.
As for `COc1cc(OC)c(-c2coc3cc4occc4cc3c2=O)cc1OC` [ISOELLIPTOL], the values for the IC50 with A549 and in the assay on MCF7 were 1.6 µg/mL (≈ 4.54 µM) and 0.8 µg/mL (≈ 2.27 µM), respectively.
The like results for `COc1cc2c(cc1-c1cc3cc4ccoc4cc3oc1=O)OCO2` [PACHYRRIZINE] were, in that order, over 5 µg/mL and 3.6 µg/mL (≈ 10.7 µM).
The like results for `CC(C)(O)C1Cc2cc3c(cc2O1)OC[C@H]1c2ccc(O)cc2O[C@@H]31` (some centres undefined) [RAUTANDIOL B] were, in that order, over 5 µg/mL and over 5 µg/mL.
The like results for `C=C(C)[C@H]1Cc2c(ccc3c2O[C@@H]2COc4cc(OC)c(OC)cc4[C@@H]2C3=O)O1` [ROTENONE] were, in that order, 0.04 µg/mL (≈ 0.101 µM) and 0.008 µg/mL (≈ 0.0203 µM).
